Several values for one entry are separate records, joined by “and”; a condition that tells them apart may be missing. Identical values can stand only once. Toxic doses and inconclusive results are not listed. No stated cut-off is given here; in the data, active means T/C of 150% or more; inactive means T/C below 125%.
System: L1210 leukemia ip in BDF1 mice, survival T/C
Test: NCI In Vivo Anticancer Drug Screen. Data for tumor model L1210 Leukemia (intraperitoneal) in B6D2F1 (BDF1) mice
Settings: endpoint: mean survival time, higher = longer survival
How it was run: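 Survival endpoint. Drug-treated group vs vehicle group, expressed as T divided by C. Tumor passaged by transplantation.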

[1] = dose: 100.0 mg/kg/injection, schedule: Q01DX001 (ip), vehicle: carboxymethylcellulose (CMC)
[2] = dose: 400.0 mg/kg/injection, schedule: Q01DX001 (ip), vehicle: carboxymethylcellulose (CMC)
[3] = dose: 100.0 mg/kg/injection, schedule: Q01DX009 (ip), vehicle: saline with Tween-80
[4] = dose: 200.0 mg/kg/injection, schedule: Q01DX009 (ip), vehicle: saline with Tween-80
[5] = dose: 400.0 mg/kg/injection, schedule: Q01DX009 (ip), vehicle: saline with Tween-80
[6] = dose: 100.0 mg/kg/injection, schedule: Q04DX003 (ip), vehicle: saline with Tween-80
[7] = dose: 200.0 mg/kg/injection, schedule: Q04DX003 (ip), vehicle: saline with Tween-80
[8] = dose: 400.0 mg/kg/injection, schedule: Q04DX003 (ip), vehicle: saline with Tween-80
[9] = dose: 100.0 mg/kg/injection, schedule: Q04DX002 (ip), vehicle: Klucel (hydroxypropylcellulose) (HPC)
[10] = dose: 200.0 mg/kg/injection, schedule: Q04DX002 (ip), vehicle: Klucel (hydroxypropylcellulose) (HPC)
[11] = dose: 400.0 mg/kg/injection, schedule: Q04DX002 (ip), vehicle: Klucel (hydroxypropylcellulose) (HPC)
[12] = dose: 100.0 mg/kg/injection, schedule: Q01DX001 (ip), vehicle: saline
[13] = dose: 200.0 mg/kg/injection, schedule: Q01DX001 (ip), vehicle: saline
[14] = dose: 400.0 mg/kg/injection, schedule: Q01DX001 (ip), vehicle: saline
[15] = dose: 100.0 mg/kg/injection, schedule: Q01DX009 (ip), vehicle: Klucel (hydroxypropylcellulose) (HPC)
[16] = dose: 200.0 mg/kg/injection, schedule: Q01DX009 (ip), vehicle: Klucel (hydroxypropylcellulose) (HPC)
[17] = dose: 400.0 mg/kg/injection, schedule: Q01DX009 (ip), vehicle: Klucel (hydroxypropylcellulose) (HPC)
[18] = dose: 200.0 mg/kg/injection, schedule: Q04DX003 (ip), vehicle: saline
[19] = dose: 400.0 mg/kg/injection, schedule: Q04DX003 (ip), vehicle: saline
[20] = dose: 50.0 mg/kg/injection, schedule: Q01DX009 (ip), vehicle: Klucel (hydroxypropylcellulose) (HPC)
[21] = dose: 100.0 mg/kg/injection, schedule: Q04DX003 (ip), vehicle: Klucel (hydroxypropylcellulose) (HPC)
[22] = dose: 200.0 mg/kg/injection, schedule: Q04DX003 (ip), vehicle: Klucel (hydroxypropylcellulose) (HPC)
[23] = dose: 400.0 mg/kg/injection, schedule: Q04DX003 (ip), vehicle: Klucel (hydroxypropylcellulose) (HPC)
[24] = dose: 100.0 mg/kg/injection, schedule: Q04DX003 (ip), vehicle: saline

Measured: T/C

COC(=O)C1C2CCc3cc(OC)ccc3C2CC(=O)C1(C)C(=O)OC (stereo unspecified)
inactive: dose: 100.0 mg/kg/injection, schedule: Q01DX009 (sc), vehicle: steriod suspending solution 98 % of control | dose: 200.0 mg/kg/injection, schedule: Q01DX009 (sc), vehicle: steriod suspending solution 98 % of control | dose: 400.0 mg/kg/injection, schedule: Q01DX009 (sc), vehicle: steriod suspending solution 107 % of control

Nc1cc2c(cc1Cl)-c1ccccc1/C2=N\O
inactive: [1] 110 % of control | dose: 200.0 mg/kg/injection, schedule: Q01DX001 (ip), vehicle: carboxymethylcellulose (CMC) 98 % of control | [2] 102 % of control

COc1cc([N+](=O)[O-])ccc1NC(=O)Nc1ccc(S(N)(=O)=O)cc1
inactive: dose: 100.0 mg/kg/injection, schedule: Q01DX001 (ip), vehicle: saline with Tween-80 98 % of control | [3] 103 % of control and 107 % of control | dose: 100.0 mg/kg/injection, schedule: Q04DX002 (ip), vehicle: saline with Tween-80 100 % of control and 102 % of control | dose: 200.0 mg/kg/injection, schedule: Q01DX001 (ip), vehicle: saline with Tween-80 90 % of control | [4] 92 % of control and 103 % of control | dose: 200.0 mg/kg/injection, schedule: Q04DX002 (ip), vehicle: saline with Tween-80 99 % of control and 86 % of control | dose: 400.0 mg/kg/injection, schedule: Q01DX001 (ip), vehicle: saline with Tween-80 91 % of control | [5] 94 % of control and 96 % of control | dose: 400.0 mg/kg/injection, schedule: Q04DX002 (ip), vehicle: saline with Tween-80 94 % of control

O=[N+]([O-])C1CCCCCCCCCCC1
inactive: dose: 100.0 mg/kg/injection, schedule: Q01DX001 (ip), vehicle: other 96 % of control | dose: 200.0 mg/kg/injection, schedule: Q01DX001 (ip), vehicle: other 100 % of control | dose: 400.0 mg/kg/injection, schedule: Q01DX001 (ip), vehicle: other 96 % of control

CNC(=S)N/N=C/c1ccc([N+](=O)[O-])s1
inactive: [6] 90 % of control | [7] 90 % of control | [8] 89 % of control

O=[N+]([O-])c1ccc(Oc2ccccc2)c(S(=O)(=O)O)c1
inactive: [6] 103 % of control | [7] 94 % of control | [8] 97 % of control

COc1cccc(CCC(=O)c2ccccc2)c1
inactive: [9] 106 % of control | [10] 90 % of control | [11] 94 % of control

COC1(c2ccccc2)Oc2ccccc2C(=O)C1(O)C[N+](=O)[O-] (stereo unspecified)
inactive: dose: 50.0 mg/kg/injection, schedule: Q01DX001 (ip), vehicle: saline 95 % of control | [12] 89 % of control | [13] 95 % of control | [14] 101 % of control

O=S(=O)(CCCBr)NC1CCCCC1
inactive: [15] 96 % of control | [16] 91 % of control | [17] 93 % of control

C=C=CC(C)(C)C
inactive: [12] 96 % of control | [13] 96 % of control | [18] 100 % of control | [14] 96 % of control | [19] 100 % of control

CCCCOCCCO
inactive: dose: 100.0 mg/kg/injection, schedule: Q01DX009 (ip), vehicle: saline 91 % of control | dose: 200.0 mg/kg/injection, schedule: Q01DX009 (ip), vehicle: saline 92 % of control | dose: 400.0 mg/kg/injection, schedule: Q01DX009 (ip), vehicle: saline 95 % of control

CC1(c2ccco2)C(=O)NC(=O)N1C(=O)CCl (stereo unspecified)
inactive: [3] 112 % of control | [6] 96 % of control | [4] 101 % of control | [7] 103 % of control | [8] 101 % of control

COC(=O)c1ccccc1NC(=O)Nc1ccccc1C(F)(F)F
inactive: [3] 89 % of control | [4] 89 % of control | [5] 86 % of control

O=C(Nc1cc([N+](=O)[O-])ccc1Cl)N(Cc1ccccc1)c1ccccc1
inactive: dose: 12.5 mg/kg/injection, schedule: Q01DX009 (ip), vehicle: Klucel (hydroxypropylcellulose) (HPC) 94 % of control and 95 % of control | dose: 25.0 mg/kg/injection, schedule: Q01DX009 (ip), vehicle: Klucel (hydroxypropylcellulose) (HPC) 94 % of control and 97 % of control | [20] 89 % of control

O=C(Nc1cc(C(F)(F)F)ccc1Cl)Nc1cc(Cl)c(Oc2ccc(Cl)cc2)cc1S(=O)(=O)O
inactive: dose: 100.0 mg/kg/injection, schedule: Q04DX003 (ip), vehicle: saline sonified 105 % of control | dose: 200.0 mg/kg/injection, schedule: Q04DX003 (ip), vehicle: saline sonified 100 % of control

O=C(O)C(O)(C1CCCCC1)C1CCC2CCC3CCCC1C32 (stereo unspecified)
inactive: [3] 87 % of control

COC1=C(c2ccccc2)P(=O)(Cc2ccccc2)C2CCCC12 (stereo unspecified)
inactive: [21] 109 % of control | [22] 96 % of control | [23] 100 % of control

C=C(C)c1cc2c(cc1O)OCC2C (stereo unspecified)
inactive: [20] 101 % of control | [15] 92 % of control and 96 % of control | [21] 107 % of control | [16] 86 % of control and 89 % of control | [22] 94 % of control | [17] 96 % of control | [23] 94 % of control

O=C(O)c1ccc([N+](=O)[O-])cc1Sc1ccsc1
inactive: [12] 98 % of control | [13] 98 % of control | [14] 98 % of control

C=CCN(C(=O)OCC)c1ccccc1
inactive: [15] 110 % of control | [21] 95 % of control | [16] 108 % of control | [22] 106 % of control | [17] 93 % of control | [23] 106 % of control

O=C(NC(=S)Nc1ccc(Cl)cc1C(=O)c1ccccc1)c1ccc(Cl)cc1Cl
inactive: [15] 93 % of control | [16] 96 % of control | [17] 94 % of control

Cc1ccc(S(=O)(=O)OCCCCOS(=O)(=O)c2ccc(C)cc2)cc1
inactive: [15] 99 % of control | [21] 91 % of control | [16] 89 % of control | [22] 100 % of control | [17] 100 % of control | [23] 105 % of control

COC(=O)CCC(=O)Nc1ccccc1C(C)=O
inactive: [6] 104 % of control | [7] 93 % of control | [8] 93 % of control

CCCC(C)(COC(N)=O)COC(N)=O
inactive: [3] 93 % of control | [4] 90 % of control | [5] 109 % of control

CC[As](=O)(O)c1ccccc1
inactive: dose: 6.25 mg/kg/injection, schedule: Q01DX009 (ip), vehicle: saline 89 % of control | dose: 12.5 mg/kg/injection, schedule: Q01DX009 (ip), vehicle: saline 89 % of control

Nc1nc(-c2ccccc2)c(CCCOc2ccc([N+](=O)[O-])cc2)c(=O)[nH]1
inactive: dose: 50.0 mg/kg/injection, schedule: Q01DX001 (ip), vehicle: carboxymethylcellulose (CMC) 88 % of control | [1] 91 % of control | [2] 88 % of control

CCOC(CN=Cc1ccccn1)OCC
inactive: [24] 97 % of control | [18] 91 % of control | [19] 90 % of control

Cc1ccc(NC(=O)C2C3CC4OC(=O)C2C4C3)cc1 (stereo unspecified)
inactive: [24] 102 % of control | [18] 108 % of control | [19] 111 % of control

c1ccc2c(c1)-c1ccccc1[Si]21c2ccccc2-c2ccccc21
inactive: [3] 97 % of control | [4] 92 % of control | [5] 91 % of control

ClC(Cl)(Cl)C(Nc1ccccc1)Nc1ccccc1
inactive: [15] 87 % of control | [21] 94 % of control | [16] 96 % of control | [22] 90 % of control | [17] 91 % of control | [23] 92 % of control

COC(=O)c1c(Cl)c(Cl)c(Cl)c(Cl)c1C(=O)OC
inactive: [15] 96 % of control | [3] 96 % of control | [21] 95 % of control | [6] 100 % of control | [16] 102 % of control | [4] 91 % of control | [22] 96 % of control | [7] 100 % of control | [17] 107 % of control | [23] 95 % of control

OCC1CCCCC1CO (stereo unspecified)
inactive: [9] 113 % of control | [10] 107 % of control | [11] 103 % of control

COC(=O)N1C2C=CC(=O)C(C=C2)N1C(=O)OC (stereo unspecified)
inactive: dose: 75.0 mg/kg/injection, schedule: Q01DX001 (ip), vehicle: saline 106 % of control | dose: 150.0 mg/kg/injection, schedule: Q01DX001 (ip), vehicle: saline 106 % of control | dose: 300.0 mg/kg/injection, schedule: Q01DX001 (ip), vehicle: saline 109 % of control

Source: PubChem BioAssay AID248 (DTP/NCI, 2004)
